# Where no end group is shown, it is not given here.
# Legend:
# [1] = tested on: human skin transplanted onto the backs of SCID mice, human lymphocytes injected; test: HU-SCID mouse model: inflammatory sites in transplanted human skin; assay type: in vivo
# Experimental: Human skin was transplanted onto the backs of SCID mice, and two weeks later human lymphocytes were injected into the peritoneum. The proceedings were according to Petzelbauer et al. (J. Invest. Dermatol. 1996, 107; 576-581). Then, fifteen mice thus prepared were injected in their tail veins with the following:
# Twenty-four hours later, the human skin was removed and the number of inflammatory sites, expressed in cells per 0.3 mm^2, was evaluated and the mean value was determined with a standard deviation.
# [2] = tested on: peripheral mononuclear blood cells (PBMC); test: Adhesion and transmigration of PBMC on HUVEC on a collagen matrix; assay type: cell-based, human; settings: for adhesion / migration: Example 9, PBMC
# Experimental: (§1) Endothelial cells from human umbilical veins (HUVEC) were marked with a red fluorescent dye (Cell Tracker Orange, 1 μl/ml, Molecular Probes, Eugene, Oreg.) and were dispersed on a collagen matrix (Collaborative Biomedical Products, Bedford, Mass.). Upon confluence of the endothelial cells, peripheral mononuclear blood cells (PBMC) (10^5 cells per 25 mm^2) marked with a green fluorescent dye (Cell Tracker Green, 1 μl/ml, Molecular Probes of Messrs. Eugene, Origon) were superimposed. Thereafter, the cells were incubated at 37° C. for twelve hours.
# (§2) Adhering cells that had transmigrated into the gel were photographed with a laser-scan microscope, were converted into pixels and were evaluated by means of an “NIH image” according to Gröger et al. (J. Immunol. Method 1999; 222: 101-109).
# (§3) It was feasible to determine the number of adherent cells per 0.1 mm^2 such as mentioned under “adhesion”. It was feasible to determine the number of migrated cells per 0.04 mm^3 such as mentioned under “migration”. The mean value of three times three trials was evaluated together with the standard deviation.
# 100 μg of NDSK-II and Bbeta or Bbeta randomized were added to the collagen matrix according to Example 8 comprising the suspension of PBMC, and further proceedings were in accordance with Example 8.
# 100 μg of NDSK-II and Aalpha or Aalpha randomized were added to the collagen matrix according to Example 8 comprising the suspension of PBMC, and further proceedings were in accordance with Example 8.
# [3] = tested on: lymphocytes; test: Adhesion and transmigration of pure lymphocytes on HUVEC on a collagen matrix; assay type: cell-based, human; settings: Example 11; for adhesion / migration: lymphocytes
# Experimental: as §1, §2, §3
# Since PBMC substantially consists of a mixture of lymphocytes and monocytes, pure lymphocytes instead of PBMC (as in Examples 8-10) were used in Example 11.
# 100 μg of NDSK-uPA or 100 μg of NDSK-II, respectively, and Aalpha or Bbeta, respectively, were added to the collagen matrix according to Example 8 comprising endothelial cells and lymphocytes.
# The proceedings were in accordance with Example 11, with pure lymphocytes being used. 100 μg of NDSK-uPA or 100 μg of NDSK-II, respectively, was added to the short peptide salts derived from Aalpha Gly Pro Arg (Pro)—NH2 acetate (Aalpha derivative) or derived from Bbeta Gly His Arg Pro-OH acetate (Bbeta derivative).
# [4] = tested on: monocytes; test: Adhesion and transmigration of pure monocytes on HUVEC on a collagen matrix; assay type: cell-based, human
# Experimental: as §1, §2, §3
# The proceedings were in accordance with Example 11, except for pure monocytes being used instead of lymphocytes. 100 μg of NDSK-uPA or 100 μg of NDSK-II, respectively, was added to peptide Aalpha, randomized Aalpha, Bbeta or randomized Bbeta.
# The proceedings were in accordance with Example 12, with pure monocytes being used. […] of NDSK-uPA or 100 μg of NDSK-II, respectively, was added to the short peptide salts Aalpha Gly Pro Arg (Pro)—NH2 acetate (Aalpha derivative) or Bbeta Gly His Arg Pro-OH acetate (Bbeta derivative).
# [5] = tested on: cardiac muscle; test: Rat cardiac artery occlusion / reperfusion, infarct planimetry
# [6] = 10 μg of peptide + 100 μg NDSK-II
# [7] = 100 μg of peptide + 100 μg NDSK-II
# [8] = 1000 μg of peptide + 100 μg NDSK-II
# [9] = 100 μg of peptide + 100 μg NDSK-uPA
# [10] = Example 12, 100 μg of peptide + 100 μg NDSK-II
# [11] = Example 12, 100 μg of peptide + 100 μg NDSK-uPA
# [12] = Example 12, substance alone, 100 μg
# [13] = rat, 800 μg/kg intravenously at reperfusion after 25 min occlusion, 2 hours
sequence,measurement,setting,value
GHRPLDKKREEAPSLRPAPPPISGGGYR [amino acids 1 to 28 of the beta chain of the fibrin],number of inflammatory sites,"[1]; Example 3, 100 μg alone, tail vein, 24 hours, mean +/- SD",6+/−1.1 cells per 0.3 mm^2
same,inflammatory sites,"[1]; Examples 4-7, 100 μg of peptide + 100 μg of human NDSK-II, 24 hours",14+/−2 per 0.3 mm^2
same,conclusion: blocking of lymphocytic inflammation,"[1]; Examples 4 to 7, with 100 μg NDSK-II",blocks lymphocytic inflammation
same,adhesion,[2]; [6],63 +/− 33 cells per 0.1 mm^2
same,migration,[2]; [6],7 +/− 4 cells per 0.04 mm^3
same,adhesion,[2]; [7],47 +/− 34 cells per 0.1 mm^2
same,migration,[2]; [7],5 +/− 4 cells per 0.04 mm^3
same,adhesion,[2]; [8],52 +/− 27 cells per 0.1 mm^2
same,migration,[2]; [8],10 +/− 6 cells per 0.04 mm^3
same,conclusion: blocking of NDSK-II-induced PBMC adhesion/migration,"[2]; Examples 9 and 10, with 100 μg NDSK-II",blocks inflammations
same,conclusion: blocking of lymphocytic adhesion and migration induced by NDSK-II and NDSK-uPA,[3],completely blocks
same,adhesion,[3]; [7],74 +/− 8 cells per 0.1 mm^2
same,migration,[3]; [7],17 +/− 3 cells per 0.04 mm^3
same,adhesion,[3]; [9],74 +/− 8 cells per 0.1 mm^2
same,migration,[3]; [9],19 +/− 2 cells per 0.04 mm^3
same,adhesion,"[3]; substance alone, 100 μg",58 +/− 18 cells per 0.1 mm^2
same,migration,"[3]; substance alone, 100 μg",14 +/− 1 cells per 0.04 mm^3
same,adhesion,[4]; [10],70 +/− 7 cells per 0.1 mm^2
same,migration,[4]; [10],7 +/− 5 cells per 0.04 mm^3
same,adhesion,[4]; [11],61 +/− 11 cells per 0.1 mm^2
same,migration,[4]; [11],8 +/− 3 cells per 0.04 mm^3
same,adhesion,[4]; [12],59 +/− 7 cells per 0.1 mm^2
same,migration,[4]; [12],5 +/− 1 cells per 0.04 mm^3
same,cardiac muscle threatened because of the vascular occlusion,[5]; [13],60%
same,endangered tissue that was dead,[5]; [13],29%
same,reduction of dead tissue,"[5]; versus reference rats, p<0.05",37%

# — patent US7271144B2, “Therapeutic fibrin-derived peptides and uses thereof” (Fibrex Medical Research & Development GmbH, priority 2000, dated 2007)
